Test results taken from patent US7687538B2 (priority 2004, dated 2010).

Legend:
κ-opioid receptor (KOR) = κ-opioid receptor (KOR) (Homo sapiens, UniProt P41145); assay: biochemical; format: binding
[1] = Siebert 1994; cited from earlier work
[2] = target: kappa opiate receptor (KOR) (Homo sapiens, UniProt P41145); conditions: Roth 2002; cited from earlier work
kappa opiate receptor (KOR), sequence (P41145 whole entry): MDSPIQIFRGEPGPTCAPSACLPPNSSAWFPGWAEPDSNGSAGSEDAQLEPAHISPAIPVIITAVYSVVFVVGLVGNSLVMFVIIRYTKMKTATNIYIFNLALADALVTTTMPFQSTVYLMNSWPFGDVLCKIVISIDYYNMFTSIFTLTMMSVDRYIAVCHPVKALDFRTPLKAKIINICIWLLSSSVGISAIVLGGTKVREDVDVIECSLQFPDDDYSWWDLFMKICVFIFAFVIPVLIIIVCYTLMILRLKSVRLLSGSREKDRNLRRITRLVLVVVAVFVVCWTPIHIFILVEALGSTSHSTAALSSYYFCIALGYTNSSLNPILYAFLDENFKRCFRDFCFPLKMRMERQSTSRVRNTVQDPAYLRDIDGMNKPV

κ-opioid receptor (KOR), sequence (P41145 whole entry): as above

SMILES: COC(=O)[C@@H]1C[C@H](S)C(=O)[C@H]2[C@@]1(C)CC[C@H]1C(=O)O[C@H](c3ccoc3)C[C@]21C [2-Thiol salvinorin B]
- Ki (κ-opioid receptor (KOR)): 11.2 nM

SMILES: COC(=O)[C@@H]1C[C@H](OC(C)=O)C(=O)[C@H]2[C@@]1(C)CC[C@H]1C(=O)O[C@H](c3ccoc3)C[C@]21C [Salvinorin A]
- human dose (psychedelic agent) [1]: 0.5 to 1 mg
- agonist character at the kappa opiate receptor [2]: full agonist

SMILES: COC(=O)[C@@H]1C[C@H](SC(C)=O)C(=O)[C@H]2[C@@]1(C)CC[C@H]1C(=O)O[C@H](c3ccoc3)C[C@]21C [Salvinorinyl-2-thioacetate]
- Ki (κ-opioid receptor (KOR)): 7.9 nM
